Reference: US20040097420A1, “Proteasome regulation of NF-kB activity” (Harvard College, priority 1994, published 2004)
pKi: −log10 of the molar value. Non-standard residues stand in square brackets, D forms with d. Residues, ends and D or L forms follow the SMILES beside them. ξ: configuration not given here. *: point of attachment. Phe(4-Cl) = N[C@@H](Cc1ccc(Cl)cc1)C(=O)O; 2Nal = N[C@@H](Cc1ccc2ccccc2c1)C(=O)O; hPhe = N[C@@H](CCc1ccccc1)C(=O)O; Ile(3ξ) = CCC(C)[C@H](N)C(=O)O; Phg = N[C@H](C(=O)O)c1ccccc1; Nle = CCCC[C@H](N)C(=O)O; Pra = C#CC[C@H](N)C(=O)O; Nva = CCC[C@H](N)C(=O)O; Abu = CC[C@H](N)C(=O)O; Cbz = O=C(OCc1ccccc1)*; Bn = c1ccc(C*)cc1

Biological target: T1, cathepsin B (Bos taurus, UniProt P07688)
T1 construct: Bovine spleen; Substrate: Z-RR-AMC; from tissue; host or cells: bovine spleen
Assay: Inhibition of cathepsin B (Ki)
Assay type: biochemical
Conditions: Bovine spleen; substrate Z-RR-AMC; [DTT] = 2 mM, [EDTA] = 5 mM, pH 5.5, 37° C.; read-out: Ki Cat B
Source text: (§1) Tables I-III summarize results from kinetic experiments that measured the inhibition of the 20S and 26S proteasomes, as well as cathepsin B and calpain. In these tables, Ki values are reported, which are dissociation constants for the equilibrium that is established when enzyme and inhibitor interact to form the enzyme:inhibitor complex.

Compound | pKi
CSCC[C@@H](C=O)NC(=O)[C@H](CC(C)C)NC(=O)[C@H](CC(C)C)NC(C)=O [MG 102, reference compound] (Ac-Leu-Leu-Met-aldehyde) | 7.03
CC(C)C[C@H](NC(=O)OCc1ccccc1)C(=O)N[C@@H](CC(C)C)C(=O)NCC=O [MG 118] (Cbz-Leu-Leu-Gly-aldehyde) | 7.03
CC(C)C[C@H](NC(=O)OCc1ccccc1)C(=O)N[C@@H](CC(C)C)C(=O)N[C@H](C=O)C(C)C [MG 120] (Cbz-Leu-Leu-Val-aldehyde) | 7.44
CC(C)C[C@H](NC(=O)OCc1ccccc1)C(=O)N[C@@H](CC(C)C)C(=O)N[C@@H](C)C=O [MG 111] (Cbz-Leu-Leu-Ala-aldehyde) | 8.22
COC(=O)C(=O)[C@H](Cc1ccccc1)NC(=O)[C@H](CC(C)C)NC(=O)[C@H](CC(C)C)NC(=O)OCc1ccccc1 [MG 113, Z-Leu-Leu-Phe-C(O)—OMe] | > 8.40
CCCC[C@@H](C=O)NC(=O)[C@H](CC(C)C)NC(=O)[C@H](CC(C)C)NC(=O)OCc1ccccc1 [MG 114, Z-Leu-Leu-Nle-H] (Cbz-Leu-Leu-[Nle]-aldehyde) | 8.15

Results, then the compound that gave them:

pKi | Compound
7.74 | CC[C@@H](C=O)NC(=O)[C@H](CC(C)C)NC(=O)[C@H](CC(C)C)NC(=O)OCc1ccccc1 [MG 119] (Cbz-Leu-Leu-[Abu]-aldehyde)
8.00 | CCC[C@@H](C=O)NC(=O)[C@H](CC(C)C)NC(=O)[C@H](CC(C)C)NC(=O)OCc1ccccc1 [MG 115, Z-Leu-Leu-Nva-H] (Cbz-Leu-Leu-[Nva]-aldehyde)
7.14 | CC(C)C[C@H](NC(=O)OCc1ccccc1)C(=O)N[C@@H](CC(C)C)C(=O)N[C@H](C=O)Cc1ccc2ccccc2c1 [MG 121, Z-Leu-Leu-Nal-H] (Cbz-Leu-Leu-[2Nal]-aldehyde)

Biological target: T2, 20S Proteasome (Oryctolagus cuniculus, UniProt G1T4Q9)
T2 sequence (G1T4Q9 1-263): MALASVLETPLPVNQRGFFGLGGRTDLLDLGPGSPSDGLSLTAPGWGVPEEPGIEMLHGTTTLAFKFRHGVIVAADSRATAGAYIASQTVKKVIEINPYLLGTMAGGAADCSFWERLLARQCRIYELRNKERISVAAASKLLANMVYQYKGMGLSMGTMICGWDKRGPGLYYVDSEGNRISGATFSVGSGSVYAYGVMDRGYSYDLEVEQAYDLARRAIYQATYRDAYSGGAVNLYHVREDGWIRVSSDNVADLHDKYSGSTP
Assay: Inhibition of the 20S proteasome (kinetic experiments, Ki)
Assay type: biochemical, Rabbit
Set-up: Ki 20 S; substrate Suc-LLVY-AMC
Conditions: Rabbit muscle, SDS-activated; substrate Suc-LLVY-AMC
Source text: as §1
(§2) The substances and assay conditions are briefly summarized in the footnotes to Table I. MG 101 and MG 102, also known as Calpain Inhibitor I and II, were purchased from Calbiochem as catalogue products.
(§3) Table V summarizes data for the inhibition of the 20S proteasome by various tripeptide aldehyde inhibitors.

Compound | pKi
CSCC[C@@H](C=O)NC(=O)[C@H](CC(C)C)NC(=O)[C@H](CC(C)C)NC(C)=O [MG 102, reference compound] (Ac-Leu-Leu-Met-aldehyde) | 6.00
CCCC[C@@H](C=O)NC(=O)[C@H](CC(C)C)NC(=O)OCc1ccccc1 [MG 105, Z-Leu-Nle-H, reference compound] | 4.82
CC(C)C[C@H](NC(=O)OCc1ccccc1)C(=O)N[C@@H](CC(C)C)C(=O)NCC=O [MG 118] (Cbz-Leu-Leu-Gly-aldehyde) | 5.42
CC(C)C[C@H](NC(=O)OCc1ccccc1)C(=O)N[C@@H](CC(C)C)C(=O)N[C@H](C=O)C(C)C [MG 120] (Cbz-Leu-Leu-Val-aldehyde) | 7.03
CC(C)C[C@H](NC(=O)OCc1ccccc1)C(=O)N[C@@H](CC(C)C)C(=O)N[C@@H](C)C=O [MG 111] (Cbz-Leu-Leu-Ala-aldehyde) | 6.68
COC(=O)C(=O)[C@H](Cc1ccccc1)NC(=O)[C@H](CC(C)C)NC(=O)[C@H](CC(C)C)NC(=O)OCc1ccccc1 [MG 113, Z-Leu-Leu-Phe-C(O)—OMe] | 6.16
CCCC[C@@H](C=O)NC(=O)[C@H](CC(C)C)NC(=O)[C@H](CC(C)C)NC(=O)OCc1ccccc1 [MG 114, Z-Leu-Leu-Nle-H] (Cbz-Leu-Leu-[Nle]-aldehyde) | 7.33

Results, then the compound that gave them:

pKi | Compound
7.30 | CC[C@@H](C=O)NC(=O)[C@H](CC(C)C)NC(=O)[C@H](CC(C)C)NC(=O)OCc1ccccc1 [MG 119] (Cbz-Leu-Leu-[Abu]-aldehyde)
7.68 | CCC[C@@H](C=O)NC(=O)[C@H](CC(C)C)NC(=O)[C@H](CC(C)C)NC(=O)OCc1ccccc1 [MG 115, Z-Leu-Leu-Nva-H] (Cbz-Leu-Leu-[Nva]-aldehyde)
7.60 | CC(C)C[C@H](NC(=O)OCc1ccccc1)C(=O)N[C@@H](CC(C)C)C(=O)N[C@H](C=O)Cc1ccc2ccccc2c1 [MG 121, Z-Leu-Leu-Nal-H] (Cbz-Leu-Leu-[2Nal]-aldehyde)

Biological target: T3, 20S proteasome (Oryctolagus cuniculus, UniProt G1T4Q9)
T3 sequence (G1T4Q9 60-263): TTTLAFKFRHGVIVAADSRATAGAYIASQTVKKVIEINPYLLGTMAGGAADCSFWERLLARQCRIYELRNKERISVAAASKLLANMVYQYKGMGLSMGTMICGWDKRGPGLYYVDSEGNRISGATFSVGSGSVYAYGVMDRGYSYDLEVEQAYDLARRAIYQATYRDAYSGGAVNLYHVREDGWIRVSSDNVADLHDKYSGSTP
Assay: as above
Assay type: biochemical, Rabbit
Conditions: Table V, miscellaneous tripeptide aldehydes; 20S proteasome
Source text: as §1, §2, §3

Compound | pKi
CCC(C)[C@@H](C=O)NC(=O)[C@H](CC(C)C)NC(=O)[C@H](CC(C)C)NC(=O)OCc1ccccc1 (stereo partly drawn) [MG 134] (Cbz-Leu-Leu-[Ile(3ξ)]-aldehyde) | 7.00
CC(C)C[C@H](NC(=O)OCc1ccccc1)C(=O)N[C@@H](CC(C)C)C(=O)N[C@H](C=O)c1ccccc1 [MG 133] (Cbz-Leu-Leu-[Phg]-aldehyde) | 6.33
CC(=O)N[C@@H](CC(C)C)C(=O)N[C@@H](CC(C)C)C(=O)N[C@H](C=O)CC(C)C [MG 154] (Ac-Leu-Leu-Leu-aldehyde) | 7.12

Continued, values first:

pKi | Compound
8.15 | CC(C)C[C@H](NC(=O)OCc1ccccc1)C(=O)N[C@@H](CC(C)C)C(=O)N[C@H](C=O)Cc1ccc(Cl)cc1 [MG 158] (Cbz-Leu-Leu-[Phe(4-Cl)]-aldehyde)
7.23 | CC(C)C[C@H](NC(=O)OCc1ccccc1)C(=O)N[C@@H](CC(C)C)C(=O)N[C@H](C=O)CCc1ccccc1 [MG 124] (Cbz-Leu-Leu-[hPhe]-aldehyde)
6.55 | CC(C)C[C@H](NC(=O)OCc1ccccc1)C(=O)N[C@@H](CC(C)C)C(=O)N[C@H](C=O)Cc1ccc(OCc2ccccc2)cc1 [MG 153] (Cbz-Leu-Leu-Tyr(Bn)-aldehyde)
7.55 | C#CC[C@@H](C=O)NC(=O)[C@H](CC(C)C)NC(=O)[C@H](CC(C)C)NC(=O)OCc1ccccc1 [MG 140] (Cbz-Leu-Leu-[Pra]-aldehyde)
8.22 | COc1ccc(C[C@@H](C=O)NC(=O)[C@H](CC(C)C)NC(=O)[C@H](CC(C)C)NC(=O)OCc2ccccc2)cc1 [MG 152] (Cbz-Leu-Leu-Tyr(Me)-aldehyde)

Biological target: T4, 26S proteasome (Oryctolagus cuniculus, UniProt G1T4Q9)
T4 sequence (G1T4Q9 1-263): T2 sequence (G1T4Q9 1-263)
Assay: Inhibition of the 26S proteasome (kinetic experiments, Ki)
Assay type: biochemical
Conditions: Rabbit muscle; substrate Suc-LLVY-AMC; [Mg:ATP] = 2 mM
Source text: as §1, §2

Compound | pKi
CSCC[C@@H](C=O)NC(=O)[C@H](CC(C)C)NC(=O)[C@H](CC(C)C)NC(C)=O [MG 102, reference compound] (Ac-Leu-Leu-Met-aldehyde) | 4.55
CC(C)C[C@H](NC(=O)OCc1ccccc1)C(=O)N[C@@H](CC(C)C)C(=O)NCC=O [MG 118] (Cbz-Leu-Leu-Gly-aldehyde) | 4.55
CC(C)C[C@H](NC(=O)OCc1ccccc1)C(=O)N[C@@H](CC(C)C)C(=O)N[C@H](C=O)C(C)C [MG 120] (Cbz-Leu-Leu-Val-aldehyde) | 6.25
CC(C)C[C@H](NC(=O)OCc1ccccc1)C(=O)N[C@@H](CC(C)C)C(=O)N[C@@H](C)C=O [MG 111] (Cbz-Leu-Leu-Ala-aldehyde) | 6.16
COC(=O)C(=O)[C@H](Cc1ccccc1)NC(=O)[C@H](CC(C)C)NC(=O)[C@H](CC(C)C)NC(=O)OCc1ccccc1 [MG 113, Z-Leu-Leu-Phe-C(O)—OMe] | 5.89
CCCC[C@@H](C=O)NC(=O)[C@H](CC(C)C)NC(=O)[C@H](CC(C)C)NC(=O)OCc1ccccc1 [MG 114, Z-Leu-Leu-Nle-H] (Cbz-Leu-Leu-[Nle]-aldehyde) | 6.92

Now from value to compound:

pKi | Compound
6.55 | CC[C@@H](C=O)NC(=O)[C@H](CC(C)C)NC(=O)[C@H](CC(C)C)NC(=O)OCc1ccccc1 [MG 119] (Cbz-Leu-Leu-[Abu]-aldehyde)
7.11 | CCC[C@@H](C=O)NC(=O)[C@H](CC(C)C)NC(=O)[C@H](CC(C)C)NC(=O)OCc1ccccc1 [MG 115, Z-Leu-Leu-Nva-H] (Cbz-Leu-Leu-[Nva]-aldehyde)
7.15 | CC(C)C[C@H](NC(=O)OCc1ccccc1)C(=O)N[C@@H](CC(C)C)C(=O)N[C@H](C=O)Cc1ccc2ccccc2c1 [MG 121, Z-Leu-Leu-Nal-H] (Cbz-Leu-Leu-[2Nal]-aldehyde)

Biological target: calpain, 80 kD catalytic subunit
Assay: Inhibition of calpain (Ki)
Assay type: biochemical
Conditions: Rabbit muscle, substrate Suc-LLVY-AMC, [CaCl2] = 1 mM, [DTT] = 2 mM, pH 7.8, 20° C.
Source text: as §1

Compound | pKi
CSCC[C@@H](C=O)NC(=O)[C@H](CC(C)C)NC(=O)[C@H](CC(C)C)NC(C)=O [MG 102, reference compound] (Ac-Leu-Leu-Met-aldehyde) | 6.92
CC(C)C[C@H](NC(=O)OCc1ccccc1)C(=O)N[C@@H](CC(C)C)C(=O)NCC=O [MG 118] (Cbz-Leu-Leu-Gly-aldehyde) | 6.92
CC(C)C[C@H](NC(=O)OCc1ccccc1)C(=O)N[C@@H](CC(C)C)C(=O)N[C@H](C=O)C(C)C [MG 120] (Cbz-Leu-Leu-Val-aldehyde) | 7.85
CC(C)C[C@H](NC(=O)OCc1ccccc1)C(=O)N[C@@H](CC(C)C)C(=O)N[C@@H](C)C=O [MG 111] (Cbz-Leu-Leu-Ala-aldehyde) | 7.96
COC(=O)C(=O)[C@H](Cc1ccccc1)NC(=O)[C@H](CC(C)C)NC(=O)[C@H](CC(C)C)NC(=O)OCc1ccccc1 [MG 113, Z-Leu-Leu-Phe-C(O)—OMe] | 7.35
CCCC[C@@H](C=O)NC(=O)[C@H](CC(C)C)NC(=O)[C@H](CC(C)C)NC(=O)OCc1ccccc1 [MG 114, Z-Leu-Leu-Nle-H] (Cbz-Leu-Leu-[Nle]-aldehyde) | 7.92

Next, values leading:

pKi | Compound
7.82 | CC[C@@H](C=O)NC(=O)[C@H](CC(C)C)NC(=O)[C@H](CC(C)C)NC(=O)OCc1ccccc1 [MG 119] (Cbz-Leu-Leu-[Abu]-aldehyde)
8.00 | CCC[C@@H](C=O)NC(=O)[C@H](CC(C)C)NC(=O)[C@H](CC(C)C)NC(=O)OCc1ccccc1 [MG 115, Z-Leu-Leu-Nva-H] (Cbz-Leu-Leu-[Nva]-aldehyde)
7.21 | CC(C)C[C@H](NC(=O)OCc1ccccc1)C(=O)N[C@@H](CC(C)C)C(=O)N[C@H](C=O)Cc1ccc2ccccc2c1 [MG 121, Z-Leu-Leu-Nal-H] (Cbz-Leu-Leu-[2Nal]-aldehyde)
